≈ marks a conversion by molar mass, not a printed value. Where two headings read alike, the source gives them in different places.

The text below walks through data of PMC5590075, “Synthesis, Antimicrobial, and Antioxidant Activities of Chalcogen-Containing Nitrone Derivatives from (R)-citronellal” (Medicines, 2017).

For one series, the system named is all the tested bacteria. Briefly: MIC and MBC, macro dilution tube method, summary over the panel. The class given is cell-based. As to conditions: read-out: MIC and MBC values. An excerpt:
(§1) To evaluate the antimicrobial potential of the synthesized compounds, the following reference strains of bacteria, that are economically important in foods, were employed: Gram-positive Listeria monocytogenes ATCC 7644, Staphylococcus aureus ATCC 25923, and Bacillus cereus ATCC 11778; Gram-negative Salmonella Typhimurium ATCC 14028, Escherichia coli O157: H7 NCTC 12900 and the clinically important Pseudomonas aeruginosa ATCC 15442.
(§2) The antimicrobial activity assay using the disk diffusion test was realized using the methodology that is recommended by the Clinical Laboratory Standards Institute (CLSI). The determination of the minimum inhibitory concentration (MIC) and minimum bactericidal concentration (MBC) was performed using the macro dilution tube method, in accordance with Rota et al., with modifications. Details of these assays are provided in the Supplemental Material. […]
(§3) 2.2. Determination of the minimum inhibitory concentration (MIC) and minimum bactericidal concentration
(§4) The MIC was determined using the macro dilution tube method, in accordance with Rota et al.
[5], with modifications. […]
(§5) The ABTS radical scavenging activity was determined according to the method described by Erel. Different concentrations of compounds 5a–d and 10 (10–500 μ M) were mixed with the ABTS+ solution, and the decrease in the absorbance at 734 nm was recorded.

Series [1] concerns Escherichia coli O157: H7 NCTC 12900. Briefly: MIC and MBC, macro dilution tube method. As to conditions: for MIC: E. coli O157:H7, 10^5 CFU.mL^−1, 24 h. The class given is cell-based.
Excerpt: as §1, §2, §3, §4
(§6) [5], with modifications. The tested concentrations were 20, 18, 15, 12, 10, 7 and 5 μL.mL‐1 of each compound. In a tube with 1 mL of MH broth, was inoculated 105 UFC.mL‐1, the compound in a predetermined concentration and, to facilitate the solubility, 2 drops of TWEEN 80. The mixture was incubated at 37 °C for 24 h under stirring (150 rpm). As the positive control, MH broth and inoculum concentration in 105 UFC.mL‐1 and as the negative control MH, the inoculum concentration in 105 UFC∙mL‐1 and streptomycin (10 μg) were used. MIC was defined as the lowest concentration of […]
(§7) After 24 h, tubes with no visible growth were seeded in a […] TSA‐YE tube and incubated at 37 °C for 24 h. The MBC is the lowest concentration of compound where 99.9% of the initially inoculated cells were killed. […]
(§8) 2.4. Radical Scavenging Activity […]
as §5

The subject of series [2] is Listeria monocytogenes ATCC 7644. Briefly: MIC and MBC, macro dilution tube method. The class given is cell-based. As to conditions: L. monocytogenes.
Excerpt: as §1, §2, §3, §4, §6, §7, §8, §5

For series [3], the system named is Staphylococcus aureus ATCC 25923. Briefly: MIC and MBC, macro dilution tube method. The class given is cell-based. As to conditions: S. mureus (so in the source); for MIC: 10^5 CFU.mL^−1, 24 h.
Excerpt: as §1, §2, §3, §4, §6, §7, §8, §5

For series [4], the system named is Pseudomonas aeruginosa ATCC 15442. Briefly: MIC and MBC, macro dilution tube method. The class given is cell-based. As to conditions: P. aeruginosa, 10^5 CFU.mL^−1.
Excerpt: as §1, §2, §3, §4, §6, §7, §8, §5

Series [5] concerns Bacillus cereus ATCC 11778. Briefly: MIC and MBC, macro dilution tube method. The class given is cell-based. As to conditions: B. mereus (so in the source); for MBC: 10^5 CFU.mL^−1; for MIC: 10^5 CFU.mL^−1, 24 h.
Excerpt: as §1, §2, §3, §4, §6, §7, §8, §5

The nature of a further series: ABTS radical scavenging. As to conditions: mean ± SD (n = 3). The method, then:
The antioxidant properties of the synthesized compounds (5a–d and 10) were evaluated by three different methods in vitro: DPPH (1,1-diphenyl-2-picryl-hydrazyl) and ABTS^+ (2,2′-azino-bis(3-ethylbenzthiazoline-6-sulfonic acid) radical scavenging ability and ferric ion reducing antioxidant power (FRAP). All drugs were dissolved in dimethyl sulfoxide (DMSO) at concentrations of 1–500 µM. These assays were performed according to the literature and details of these experiments are described elsewhere (see the ‘Results and Discussion’ section for the references). […]
2.3. Antioxidant activity assays
The antioxidant properties of the synthesized compounds were evaluated by three different methods in vitro: DPPH and ABTS+ radical scavenging activity and ferric ion reducing antioxidant power (FRAP). All drugs were dissolved in dimethyl sulfoxide (DMSO). The experimental results were given as the means ± standard deviation (SD) to show the variations among the groups. The statistical analysis was performed using one‐way analysis of variance (ANOVA) followed by Newman‐Keuls multiple comparison test when appropriate. The differences were considered statistically significant at a probability of less than 5% (p < 0.05). All tests were performed at least three times in duplicate. The IC50 values (the concentration of sample required to scavenge 50% of the free radicals) were calculated from the graph of the scavenging effect percentage versus the […]
2.4. Radical Scavenging Activity
To determine if compounds 5a–d and 10 present in vitro antioxidant activity against free radicals, DPPH and ABTS+ scavenging capability were evaluated at different concentrations. […]
The ABTS radical scavenging activity was determined according to the method described by Erel. Different concentrations of compounds 5a–d and 10 (10–500 μ M) were mixed with the ABTS+ solution, and the decrease in the absorbance at 734 nm was recorded. […]
values, as calculated by the following equation:
I% = [(Ac−As/Ac) × 100] (1)
3. Ferric ion reducing antioxidant power (FRAP) […]
reducing capacity of compounds 5a–d and 10.
[8] with slight modifications.
They were homogenized in a 0.1 M
The supernatants were used for determination of the δ‐ALAD activity. […]
and 500 μL of distilled water. […]
and the absorbance was read at 555 nm.

A further series concerns the target T1, δ-ALA-D (Mus musculus, UniProt P10518).
T1 sequence (P10518 1-330): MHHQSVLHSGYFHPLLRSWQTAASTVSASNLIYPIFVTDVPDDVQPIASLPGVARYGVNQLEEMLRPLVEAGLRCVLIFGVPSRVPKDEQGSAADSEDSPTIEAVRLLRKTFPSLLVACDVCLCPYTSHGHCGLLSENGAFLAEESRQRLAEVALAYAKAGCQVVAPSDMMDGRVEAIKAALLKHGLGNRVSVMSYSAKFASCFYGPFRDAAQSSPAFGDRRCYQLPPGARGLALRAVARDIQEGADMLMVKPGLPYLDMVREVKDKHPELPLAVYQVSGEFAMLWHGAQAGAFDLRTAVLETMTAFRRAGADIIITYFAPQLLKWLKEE
Briefly: δ-ALA-D activity in tissue supernatants (in vitro toxicity). As to conditions: mean ± SD (n = 3).

Setting [6] is: E. coli O157:H7, 10^5 CFU.mL^−1.

Take `CC(C)=CCCC(C)(C/C=[N+](\C)[O-])Sc1ccccc1` (stereo not drawn) [5c, (E)-N,3,7-trimethyl-3-(phenylthio)oct-6-en-1-imine oxide]: the MBC in the series with all the tested bacteria is 520 to 690 µM (≈ 152 to 201 µg/mL); in series [1] (setting [6]), 0.52 mM.mL^−1; in series [1] (Escherichia coli, NCTC12900, read-out: minimal bactericidal concentration (MBC)), 520 µM (≈ 152 µg/mL); in series [2] (10^5 CFU.mL^−1), over 0.69 mM.mL^−1; in series [3] (10^5 CFU.mL^−1), 0.69 mM.mL^−1; in series [4], 0.61 mM.mL^−1. The MBC in series [5] turned out to be 0.69 mM.mL^−1. In addition, the MIC in series [1] turned out to be 0.52 mM.mL^−1; in series [3] it was 0.61 mM.mL^−1; in series [5] it was 0.69 mM.mL^−1. For the same compound, the figures for the “ABTS radical scavenging, percentage of inhibition in relation to control” value in “ABTS radical scavenging” (50 μM), in “ABTS radical scavenging” (100 μM) and in the series “ABTS radical scavenging” (500 μM) were 4.18 ± 1.23%, 11.60 ± 1.50 % and 59.51 ± 4.16 %, respectively. For the same compound, in “ABTS radical scavenging” (read-out: ABTS radical scavenging IC50 (concentration compound required for 50% scavenging)), the IC50 turned out to be 419 ± 35.8 µM. The δ-ALA-D activity on δ-ALA-D (Brain, 10 μM) amounted to 0.30 ± 0.10 nmol PBG.mg.tn‐1.h‐1; at δ-ALA-D (Brain, 50 μM), 0.28 ± 0.09 nmol PBG.mg.tn‐1.h‐1; at δ-ALA-D (Brain, 100 μM), 0.26 ± 0.08 nmol PBG.mg.tn‐1.h‐1; at δ-ALA-D (Brain, 500 μM), 0.26 ± 0.07 nmol PBG.mg.tn‐1.h‐1; at δ-ALA-D (Kidney, 10 μM), 1.10 ± 0.12 nmol PBG.mg.tn‐1.h‐1; on δ-ALA-D (Kidney, 50 μM), 1.02 ± 0.12 nmol PBG.mg.tn‐1.h‐1. For the same compound, the δ-ALA-D activity is 0.99 ± 0.10 nmol PBG.mg.tn‐1.h‐1 at δ-ALA-D (Kidney, 100 μM); 0.90 ± 0.07 nmol PBG.mg.tn‐1.h‐1 at δ-ALA-D (Kidney, 500 μM); 4.63 ± 0.82 nmol PBG.mg.tn‐1.h‐1 at δ-ALA-D (Liver, 10 μM); 4.31 ± 0.81 nmol PBG.mg.tn‐1.h‐1 at δ-ALA-D (Liver, 50 μM); 4.12 ± 0.90 nmol PBG.mg.tn‐1.h‐1 at δ-ALA-D (Liver, 100 μM); 3.88 ± 0.87 nmol PBG.mg.tn‐1.h‐1 on δ-ALA-D (Liver, 500 μM).

For `CC(C)=CCCC(C)C/C=[N+](\C)[O-]` (stereo not drawn) [5d, (E)-N,3,7-trimethyloct-6-en-1-imine oxide], the values for the MBC (with all the tested bacteria; in series [1] (setting [6]); in series [5]) were 1130 to 1260 µM (≈ 207 to 231 µg/mL), 1.26 mM.mL^−1 and over 1.26 mM.mL^−1, respectively. The MIC in series [1] is 1.13 mM.mL^−1; in series [2] (10^5 CFU.mL^−1, 24 h) it was 1.26 mM.mL^−1; in series [3] it was 1.26 mM.mL^−1; in series [5], over 1.26 mM.mL^−1. The “ABTS radical scavenging, percentage of inhibition in relation to control” value in the series “ABTS radical scavenging” (50 μM) stood at 0.30 ± 0.33%; in the series “ABTS radical scavenging” (100 μM) it was 3.10 ± 0.48 %; in the series “ABTS radical scavenging” (500 μM) it was 17.05 ± 0.47 %. Moreover, the δ-ALA-D activity is 0.29 ± 0.09 nmol PBG.mg.tn‐1.h‐1 on δ-ALA-D (Brain, 10 μM); 0.27 ± 0.10 nmol PBG.mg.tn‐1.h‐1 at δ-ALA-D (Brain, 50 μM); 0.26 ± 0.09 nmol PBG.mg.tn‐1.h‐1 on δ-ALA-D (Brain, 100 μM); 0.24 ± 0.08 nmol PBG.mg.tn‐1.h‐1 at δ-ALA-D (Brain, 500 μM); 1.02 ± 0.11 nmol PBG.mg.tn‐1.h‐1 at δ-ALA-D (Kidney, 10 μM); 0.96 ± 0.12 nmol PBG.mg.tn‐1.h‐1 at δ-ALA-D (Kidney, 50 μM). Moreover, the δ-ALA-D activity on δ-ALA-D (Kidney, 100 μM) was found to be 0.89 ± 0.12 nmol PBG.mg.tn‐1.h‐1; at δ-ALA-D (Kidney, 500 μM), 0.72 ± 0.07 nmol PBG.mg.tn‐1.h‐1; on δ-ALA-D (Liver, 10 μM) it was 4.50 ± 0.60 nmol PBG.mg.tn‐1.h‐1; on δ-ALA-D (Liver, 50 μM) it was 4.22 ± 0.78 nmol PBG.mg.tn‐1.h‐1; at δ-ALA-D (Liver, 100 μM) it was 3.54 ± 0.84 nmol PBG.mg.tn‐1.h‐1; at δ-ALA-D (Liver, 500 μM) it was 2.84 ± 0.57 nmol PBG.mg.tn‐1.h‐1.
